Test results published in US20210070748A1, “INHIBITORS OF BRUTONS TYROSINE KINASE” (Pharmacyclics LLC, priority 2015, published 2021).
Structures can show the parent of a compound that is named as a salt. Where two headings read alike, the source gives them in different places.

Legend:
Format in all cases: biochemical
[1] = biological target: T1, BTK-WT (Homo sapiens, UniProt Q06187); experiment: Btk in vitro inhibitory activity (one of Method A TR-FRET, Method B electrophoretic mobility shift, Method C radiometric filter binding)
T1 construct: purified from insect cells as a full-length construct containing an N-terminal 6X-His tag; His6 (N); made in house; host or cells: insect cells (baculovirus Sf21 in Method B)
T1 sequence (Q06187 whole entry): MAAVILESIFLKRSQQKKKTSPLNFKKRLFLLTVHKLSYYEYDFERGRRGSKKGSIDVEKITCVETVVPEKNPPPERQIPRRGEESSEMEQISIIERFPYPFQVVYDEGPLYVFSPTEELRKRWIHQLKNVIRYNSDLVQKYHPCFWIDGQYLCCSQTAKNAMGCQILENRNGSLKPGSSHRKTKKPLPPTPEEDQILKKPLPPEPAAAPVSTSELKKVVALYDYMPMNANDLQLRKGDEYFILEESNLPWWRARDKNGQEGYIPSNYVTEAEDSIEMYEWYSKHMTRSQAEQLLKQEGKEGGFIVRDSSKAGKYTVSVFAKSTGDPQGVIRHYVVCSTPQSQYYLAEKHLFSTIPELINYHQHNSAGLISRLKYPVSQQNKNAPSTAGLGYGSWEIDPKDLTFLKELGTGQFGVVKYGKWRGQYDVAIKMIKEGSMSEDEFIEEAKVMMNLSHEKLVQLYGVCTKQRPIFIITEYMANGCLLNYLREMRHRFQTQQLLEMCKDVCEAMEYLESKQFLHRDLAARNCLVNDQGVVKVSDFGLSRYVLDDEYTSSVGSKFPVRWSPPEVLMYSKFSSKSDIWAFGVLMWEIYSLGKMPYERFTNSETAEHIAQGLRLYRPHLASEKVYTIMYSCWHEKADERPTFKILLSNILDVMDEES

[2] = biological target: T2, ITK (Homo sapiens, UniProt Q08881); experiment: Inhibition of a panel of kinases, in vitro HotSpot kinase assay: ITK; conditions: E compounds, Table 17
T2 sequence (Q08881 1-620): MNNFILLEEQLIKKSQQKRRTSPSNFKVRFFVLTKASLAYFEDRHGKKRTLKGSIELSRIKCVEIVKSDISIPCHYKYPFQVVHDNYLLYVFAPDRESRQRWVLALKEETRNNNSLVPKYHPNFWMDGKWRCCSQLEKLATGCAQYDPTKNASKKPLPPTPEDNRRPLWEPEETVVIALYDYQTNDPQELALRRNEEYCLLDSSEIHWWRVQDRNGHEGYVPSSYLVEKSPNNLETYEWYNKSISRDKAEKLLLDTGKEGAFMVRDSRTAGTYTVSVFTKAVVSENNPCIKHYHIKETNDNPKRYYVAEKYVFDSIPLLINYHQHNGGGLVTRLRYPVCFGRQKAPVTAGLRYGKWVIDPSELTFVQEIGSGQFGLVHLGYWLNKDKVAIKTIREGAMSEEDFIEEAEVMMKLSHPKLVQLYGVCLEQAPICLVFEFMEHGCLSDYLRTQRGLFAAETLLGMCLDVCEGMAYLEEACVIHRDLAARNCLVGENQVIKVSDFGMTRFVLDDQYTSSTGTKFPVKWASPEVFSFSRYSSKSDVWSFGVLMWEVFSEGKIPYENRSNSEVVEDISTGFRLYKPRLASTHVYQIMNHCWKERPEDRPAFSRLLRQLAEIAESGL
Description: (§1) The degree of inhibition of a panel of kinases is determined using the in vitro HotSpot kinase assay (purified enzymes, ^33P-ATP, an appropriate substrate and 1 μM ATP).

[3] = biological target: T3, TEC (Homo sapiens, UniProt P42680); experiment: Inhibition of a panel of kinases, in vitro HotSpot kinase assay: TEC; conditions: E compounds, Table 17
T3 sequence (P42680 1-631): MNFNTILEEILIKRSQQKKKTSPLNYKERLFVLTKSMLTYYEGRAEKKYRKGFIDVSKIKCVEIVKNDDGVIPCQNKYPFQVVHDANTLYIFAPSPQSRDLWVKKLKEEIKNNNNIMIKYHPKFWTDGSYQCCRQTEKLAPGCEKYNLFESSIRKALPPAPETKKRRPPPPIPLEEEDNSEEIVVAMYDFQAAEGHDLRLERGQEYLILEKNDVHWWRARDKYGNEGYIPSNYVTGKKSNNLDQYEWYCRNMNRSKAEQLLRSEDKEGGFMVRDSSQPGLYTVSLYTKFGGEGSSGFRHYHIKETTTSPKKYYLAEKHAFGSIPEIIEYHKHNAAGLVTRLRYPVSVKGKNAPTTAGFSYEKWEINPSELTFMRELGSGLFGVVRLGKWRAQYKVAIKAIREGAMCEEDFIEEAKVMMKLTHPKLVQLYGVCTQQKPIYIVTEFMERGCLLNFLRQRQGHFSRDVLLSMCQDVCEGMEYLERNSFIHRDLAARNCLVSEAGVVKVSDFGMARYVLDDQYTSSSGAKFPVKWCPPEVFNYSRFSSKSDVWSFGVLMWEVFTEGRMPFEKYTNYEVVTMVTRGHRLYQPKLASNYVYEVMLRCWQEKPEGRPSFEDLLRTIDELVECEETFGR
Description: as §1

[4] = biological target: T4, JAK3 (Homo sapiens, UniProt P52333); experiment: Inhibition of a panel of kinases, in vitro HotSpot kinase assay: JAK3; conditions: 1 μM ATP, read-out: JAK3 (IC50)
T4 sequence (P52333 1-1124): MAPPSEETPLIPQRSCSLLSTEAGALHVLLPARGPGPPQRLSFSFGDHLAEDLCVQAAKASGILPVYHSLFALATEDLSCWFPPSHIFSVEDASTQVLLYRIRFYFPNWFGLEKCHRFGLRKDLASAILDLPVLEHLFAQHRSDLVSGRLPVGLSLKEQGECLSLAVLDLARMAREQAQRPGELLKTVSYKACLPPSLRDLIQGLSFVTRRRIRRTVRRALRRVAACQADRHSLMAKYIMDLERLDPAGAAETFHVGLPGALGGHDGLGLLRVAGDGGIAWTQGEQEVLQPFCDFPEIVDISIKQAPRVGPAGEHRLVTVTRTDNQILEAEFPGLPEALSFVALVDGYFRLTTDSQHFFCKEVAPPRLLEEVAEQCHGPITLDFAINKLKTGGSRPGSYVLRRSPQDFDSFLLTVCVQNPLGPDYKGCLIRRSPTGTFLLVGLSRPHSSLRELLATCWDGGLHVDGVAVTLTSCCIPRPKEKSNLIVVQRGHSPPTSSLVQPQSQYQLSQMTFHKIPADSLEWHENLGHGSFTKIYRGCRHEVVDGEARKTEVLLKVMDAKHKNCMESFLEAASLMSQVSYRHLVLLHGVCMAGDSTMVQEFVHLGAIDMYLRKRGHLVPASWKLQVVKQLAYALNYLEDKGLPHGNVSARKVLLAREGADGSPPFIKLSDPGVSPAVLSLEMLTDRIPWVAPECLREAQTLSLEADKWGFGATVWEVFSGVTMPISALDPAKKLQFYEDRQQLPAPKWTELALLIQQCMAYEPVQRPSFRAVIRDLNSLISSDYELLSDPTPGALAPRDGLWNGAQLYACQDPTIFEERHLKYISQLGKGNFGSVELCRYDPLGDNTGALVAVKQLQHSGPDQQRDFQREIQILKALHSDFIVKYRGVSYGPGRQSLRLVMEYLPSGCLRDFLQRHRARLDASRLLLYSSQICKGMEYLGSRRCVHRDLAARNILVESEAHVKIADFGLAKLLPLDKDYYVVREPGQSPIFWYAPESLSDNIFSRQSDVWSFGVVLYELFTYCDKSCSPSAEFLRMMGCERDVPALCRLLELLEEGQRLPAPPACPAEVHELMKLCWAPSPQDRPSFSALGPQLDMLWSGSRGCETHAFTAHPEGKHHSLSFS

[5] = biological target: LCK (Homo sapiens, UniProt P06239); experiment: Inhibition of a panel of kinases, in vitro HotSpot kinase assay: LCK; conditions: 1 μM ATP, read-out: LCK (IC50)
Sequence of LCK (P06239 whole entry): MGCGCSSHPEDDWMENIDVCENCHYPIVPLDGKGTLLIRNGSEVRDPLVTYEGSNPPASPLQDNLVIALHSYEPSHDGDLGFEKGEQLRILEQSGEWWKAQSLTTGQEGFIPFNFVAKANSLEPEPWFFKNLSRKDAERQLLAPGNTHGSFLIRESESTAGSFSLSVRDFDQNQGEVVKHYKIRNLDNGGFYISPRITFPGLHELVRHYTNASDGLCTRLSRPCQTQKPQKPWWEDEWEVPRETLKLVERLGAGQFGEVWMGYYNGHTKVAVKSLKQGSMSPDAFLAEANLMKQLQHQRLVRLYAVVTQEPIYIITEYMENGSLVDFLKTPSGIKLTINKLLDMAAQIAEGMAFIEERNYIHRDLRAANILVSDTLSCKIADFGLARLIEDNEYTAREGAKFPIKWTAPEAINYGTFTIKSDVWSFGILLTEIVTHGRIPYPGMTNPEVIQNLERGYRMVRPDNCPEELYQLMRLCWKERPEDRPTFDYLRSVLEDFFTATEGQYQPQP

[6] = E compounds, Table 17, read-out: IC50 BTK-WT
[7] = Table 10, Formula A-I, read-out: BTK-WT (IC50)

IC50 [1, 6] | IC50 [2] | IC50 [3] | IC50 [1, 7] | IC50 ([4]; Table 10, Formula A-I) | IC50 ([5]; Table 10, Formula A-I) | Structure (SMILES) | other results
≤ 10 nM | ≤ 10 nM | ≤ 10 nM | – | – | – | C=CC(=O)N1CCC[C@@H](Nc2nnc(C(N)=O)c(Nc3ccc4c(cnn4CC)c3)n2)C1 [Example E-66, (R)-3-(1-acryloylpiperidin-3-ylamino)-5-(1-ethyl-1H-indazol-5-ylamino)-1,2,4-triazine-6-carboxamide] | –
≤ 10 nM | 10 to 100 nM | ≤ 10 nM | – | – | – | C=CC(=O)N1CCC[C@@H](Nc2nnc(C(N)=O)c(Nc3ccc(C(C)C)c(C)c3)n2)C1 [Example E-42, (R)-3-(1-acryloylpiperidin-3-ylamino)-5-(4-isopropyl-3-methylphenylamino)-1,2,4-triazine-6-carboxamide] | –
≤ 10 nM | ≤ 10 nM | ≤ 10 nM | – | – | – | C=CC(=O)N1CCC[C@@H](Nc2nnc(C(N)=O)c(Nc3ccc(C4=NCCN4C)cc3)n2)C1 [Example E-80, (R)-3-(1-acryloylpiperidin-3-ylamino)-5-(4-(1-methyl-4,5-dihydro-1H-imidazol-2-yl)phenylamino)-1,2,4-triazine-6-carboxamide] | –
≤ 10 nM | 10 to 100 nM | ≤ 10 nM | – | – | – | C=CC(=O)N1CCC[C@@H](Nc2nnc(C(N)=O)c(Nc3cccc(C(=O)N(C)C)c3)n2)C1 [Example E-83, (R)-3-(1-acryloylpiperidin-3-ylamino)-5-(3-(dimethylcarbamoyl)phenylamino)-1,2,4-triazine-6-carboxamide] | –
≤ 10 nM | 10 to 100 nM | ≤ 10 nM | – | – | – | C=CC(=O)N1CCC[C@@H](Nc2nnc(C(N)=O)c(Nc3ccc(I)cc3)n2)C1 [Example E-50, (R)-3-(1-acryloylpiperidin-3-ylamino)-5-(4-iodophenylamino)-1,2,4-triazine-6-carboxamide] | –
10 to 100 nM | 1000 to 10000 nM | 100 to 1000 nM | – | – | – | C=CC(=O)NC[C@@H]1CCCN1c1nnc(C(N)=O)c(Nc2ccc(C(C)C)cc2)n1 [Example E-91, (S)-3-(2-(acrylamido-methyl)pyrrolidin-1-yl)-5-(4-isopropylphenyl-amino)-1,2,4-triazine-6-carboxamide] | –
≤ 10 nM | ≤ 10 nM | ≤ 10 nM | – | – | – | C=CC(=O)N1CC[C@@H](N(C)c2nnc(C(N)=O)c(Nc3ccc(C(O)(C(F)(F)F)C(F)(F)F)cc3)n2)C1 [Example E-16, (R)-3-((1-acryloylpyrrolidin-3-yl)(methyl)amino)-5-(4-(1,1,1,3,3,3-hexafluoro-2-hydroxypropan-2-yl)phenylamino)-1,2,4-triazine-6-carboxamide] | –
≤ 10 nM | 10 to 100 nM | ≤ 10 nM | – | – | – | C=CC(=O)N1CCC[C@@H](Nc2nnc(C(N)=O)c(Nc3cccc(C(=O)NC)c3)n2)C1 [Example E-82, (R)-3-(1-acryloylpiperidin-3-ylamino)-5-(3-(methylcarbamoyl)phenylamino)-1,2,4-triazine-6-carboxamide] | –

Continued, molecule first:

Structure (SMILES) | IC50 [1, 6] | IC50 [2] | IC50 [3] | IC50 [1, 7] | IC50 ([4]; Table 10, Formula A-I) | IC50 ([5]; Table 10, Formula A-I) | other results
Cc1cc(Nc2nc(N3CCC[C@@H](NC(=O)c4ccc(N)cc4)C3)cnc2C(N)=O)sn1 [Example A-25, 5-[(3R)-3-(4-aminobenzamido)piperidin-1-yl]-3-[(3-methyl-1,2-thiazol-5-yl)amino]pyrazine-2-carboxamide] | – | – | – | ≤ 100 nM | 100 to 1000 nM | 100 to 1000 nM | –
Cc1cccc(NC(=O)N[C@@H]2CCCN(c3cnc(C(N)=O)c(Nc4ccc(C5CCN(C6CCCC6)CC5)cc4)n3)C2)c1 [Example A-4, 3-{[4-(1-cyclopentylpiperidin-4-yl)phenyl]amino}-5-[(3R)-3-{[(3-methylphenyl)carbamoyl]amino}piperidin-1-yl]pyrazine-2-carboxamide hydrochloride] | – | – | – | ≤ 100 nM | 100 to 1000 nM | < 100 nM | –
C[C@@H]1[C@H](NC(=O)N(C)C)CCCN1c1cnc(C(N)=O)c(Nc2ccc3ncccc3c2)n1 [Example A-59, 5-[(2R,3R)-3-[(dimethylcarbamoyl)amino]-2-methylpiperidin-1-yl]-3-[(quinolin-6-yl)amino]pyrazine-2-carboxamide] | – | – | – | ≤ 100 nM | 1000 to 10000 nM | 100 to 1000 nM | –
Cc1cc(Nc2cc(N3CCC[C@@H](NC(=O)c4ccc(N(C)C)cc4)C3)cnc2C(N)=O)sn1 [Example A-62, 5-[(3R)-3-[4-(dimethylamino)benzamido]piperidin-1-yl]-3-[(3-methyl-1,2-thiazol-5-yl)amino]pyridine-2-carboxamide] | – | – | – | ≤ 100 nM | > 10000 nM | > 10000 nM | –
CN(C(=O)N[C@@H]1CCCN(c2cnc(C(N)=O)c(Nc3ccc(C4CCN(C5CCCC5)CC4)cc3)n2)C1)c1ccccc1 [Example A-6, 3-{[4-(1-cyclopentylpiperidin-4-yl)phenyl]amino}-5-[(3R)-3-{[methyl(phenyl)carbamoyl]amino}piperidin-1-yl]pyrazine-2-carboxamide] | – | – | – | ≤ 100 nM | 100 to 1000 nM | 100 to 1000 nM | –
Cc1cc(Nc2nc(N3CCC[C@@H](NC(=O)c4ccc(C(C)C)cc4)C3)cnc2C(N)=O)sn1 [Example A-30, 3-[(3-methyl-1,2-thiazol-5-yl)amino]-5-[(3R)-3-[4-(propan-2-yl)benzamido]piperidin-1-yl]pyrazine-2-carboxamide] | – | – | – | ≤ 100 nM | 1000 to 10000 nM | > 10000 nM | –
Cc1cc(Nc2nc(N[C@H]3CC[C@H](NC(=O)c4ccc(N(C)C)cc4)CC3)cnc2C(N)=O)sn1 [Example B-1, 3-[(3-methyl-1,2-thiazol-5-yl)amino]-5-{[(1r,4r)-4-[4-(dimethylamino)benzamido]cyclohexyl]amino}pyrazine-2-carboxamide] | – | – | – | – | – | – | IC50 ([1]; Table 11, Formula B-I, read-out: BTK-WT (IC50)): ≤ 100 nM; IC50 ([4]; Table 11, Formula B-I): 100 to 1000 nM; IC50 ([5]; Table 11, Formula B-I): < 100 nM
